Assay results as given in patent US20080026362A1, “Three-dimensional culture containing human articular chondrocytes with induced terminal differentiation changes, and preparation process and uses of the same” (Kaohsiung Medical University, priority 2006, published 2008).

Legend:
Assay type in all cases: cell-based
[1] = system: human articular chondrocytes; experiment: TUNEL assay, apoptotic rate of chondrocytes; settings: Day 14 after 48 hr 15 μg/mL Aza-C; NHAC-kn; p<0.01
Protocol: (§1) The cultivated alginate beads as described above were treated with 15 μg/mL of 5-azacytidine (Sigma, St Louis, Mo.) for 48 hours. Thereafter, they were maintained in media without Aza-C for another 2 weeks. Cells were harvested on Day 3, 7 and 14 after Aza-C treatment, respectively. The control cultures were cultivated and harvested under the same conditions except that the treatment of Aza-C was omitted.
(§2) Human articular chondrocytes were released from the alginate beads by dissolving the beads in a 0.9% NaCl solution containing 0.05M sodium citrate and 0.03M sodium EDTA at pH 7.4. Cells for each experiment were collected by low-speed centrifugation at 1,000 rpm for 5 min.
(§3) The NHAC-kn cultures were used in the following experiments except the quantitative real-time polymerase chain reaction (quantitative real-time PCR). The KMU-AC cultures were used to quantify mRNA expression by quantitative real-time PCR, which was performed to further confirm the effect of Aza-C on gene expression of human articular chondrocytes.
Fragmented DNA of an apoptotic cell was TUNEL stained using an In Situ Cell Death Detection Kit, TMR red (Roche, Germany). […] Slides were observed on a fluorescence microscope with an excitation wavelengthof 580 nm for rhodamine and 365 nm for DAPI. […] Stained cells were counted in 5 microscopic fields for each slide. […]

collagen type X gene [2] = experiment: Quantitative real-time PCR, mRNA expression of collagen type X in human articular chondrocytes (KMU-AC); settings: normalized to GAPDH, control Day 3 = 100%, mean ± S.E.M.
Protocol: The alginate beads were prepared with reference to C. Sanchez et al. (2002), J. Rheumatol, 29:772-82. Briefly, the above-described human articular chondrocyte cultures were suspended in a 1.2% alginate solution in 0.9% NaCl, so as to form a cell suspension at a density of 1×10^6 cells/mL. The cell suspension was then slowly dropped into a 102 mM CaCl2 solution through a yellow pipette tip, to result in the formation of alginate beads entrapping the human articular chondrocytes. The thus-formed alginate beads were allowed to polymerize for further 10 minutes in the CaCl2 solution at room temperature. […]
as §3
(§4) Quantitative real-time PCR was also performed to further confirm the finding from RT-PCR. On Day 3, 7 and 14 after a 48 hr Aza-C treatment, the mRNA expressions of type II and type X collagens and ALP of Aza-C treated and control cells were measured. […]
The thus-obtained PCR products (amplicons) were detected by the fluorescence of SYBR Green, the double stranded DNA binding dye (T. B. Morrison et al. (1998), Biotechniques, 24:954-958, 960, 962). […]

collagen type X gene [3] = experiment: RT-PCR, mRNA expression of collagen type X in alginate-bead human articular chondrocytes (NHAC-kn); settings: p<0.01
Protocol: (§5) The alginate beads were prepared with reference to C. Sanchez et al. (2002), J. Rheumatol, 29:772-82. Briefly, the above-described human articular chondrocyte cultures were suspended in a 1.2% alginate solution in 0.9% NaCl, so as to form a cell suspension at a density of 1×10^6 cells/mL. The cell suspension was then slowly dropped into a 102 mM CaCl2 solution through a yellow pipette tip, to result in the formation of alginate beads entrapping the human articular chondrocytes. The thus-formed alginate beads were allowed to polymerize for further 10 minutes in the CaCl2 solution at room temperature.
(§6) After washing with saline solution, 15 alginate beads were cultivated in 5 ml of culture medium per well in a 6-well plate. Culture medium was the Chondrocyte basal medium (Bulletkit, Clonic®; BioWhittaker, Walkersville, Md.) with a supplement of the Chondrocyte growth medium, containing R3-IGF1, bFGF, transferrin, insulin, fetal bovine serum and gentamicin/amphotericin-B (SingleQuots, Clonic®; BioWhittaker, Walkersville, Md.). The alginate beads were cultured for 7 days at 37° C. in a humidified incubator with 5% CO2 and the culture medium was changed every 3 days. […]
as §3
(§7) On Day 3, 7 and 14 after a 48 hr Aza-C treatment, expressions of the mRNA of type II and type X collagens and alkaline phosphatase (ALP) of Aza-C-treated and non-treated cells (control) were measured by RT-PCR. […]
The thus-obtained PCR products (amplicons) were resolved by electrophoresis on a 1.4% agarose gel and visualised by ethidium bromide staining. The optical densities of the resolved bands were semi-quantified using a Bioimaging System (UVP Inc., Upland, Calif.). […] The optical intensity ratios of the PCR products to the 18S rRNA gene were calculated for comparison.

[4] = system: human articular chondrocytes; experiment: Flow cytometry, cell size of articular chondrocytes; settings: Day 14 after 48 hr 15 μg/mL Aza-C, NHAC-kn
Protocol: as §1, §2, §3
The cell size of articular chondrocytes from the control and Aza-C treated cultures was analysed by flow cytometry on Day 14 after the Aza-C treatment. […] Cells (1×10^6) were then suspended in phosphate buffered saline and analysed immediately on a laser flow cytometer (EPICS Elite; Coulter, Hialeah, Fla.). […]

collagen type II gene [5] = experiment: Quantitative real-time PCR, mRNA expression of collagen type II in human articular chondrocytes (KMU-AC); settings: normalized to GAPDH, control Day 3 = 100%, mean ± S.E.M.
Protocol: as §5
as §6, with “Md.).” for “Md.). The alginate beads were cultured for 7 days at 37° C. in a humidified incubator with 5% CO2 and the culture medium was changed every 3 days.”
as §3, §4
(§8) The quantitative real-time PCR was performed in an ABI Prism 7900 HT Sequence Detection System (Applied Biosystems, Foster City, Calif.) using the SYBR Green PCR Master Mix Reagent containing the Amplitag Gold DNA polymerase, dNTP mixed with dUTP, SYBR Green 1, passive reference and reaction buffer (Applied Biosystems, Foster City, Calif.). […]

collagen type II gene [6] = experiment: RT-PCR, mRNA expression of collagen type II in alginate-bead human articular chondrocytes (NHAC-kn); settings: p<0.01
Protocol: as §5
(§9) After washing with saline solution, 15 alginate beads were cultivated in 5 ml of culture medium per well in a 6-well plate. […]
as §3, §7

[7] = system: alkaline phosphatase (ALP) gene; experiment: RT-PCR, mRNA expression of alkaline phosphatase in alginate-bead human articular chondrocytes (NHAC-kn); settings: p<0.01
Protocol: as §5, §9, §3, §7

ALP gene = experiment: Quantitative real-time PCR, mRNA expression of ALP in human articular chondrocytes (KMU-AC); settings: normalized to GAPDH, control Day 3 = 100%, mean ± S.E.M.
Protocol: as §5
as §6, with “Md.).” for “Md.). The alginate beads were cultured for 7 days at 37° C. in a humidified incubator with 5% CO2 and the culture medium was changed every 3 days.”
as §3, §4, §8

[8] = Day 3 after 48 hr 15 μg/mL Aza-C
[9] = Day 14 after 48 hr 15 μg/mL Aza-C
[10] = Day 7 after 48 hr treatment with 15 μg/ml Aza-C
[11] = Day 14 after 48 hr treatment with 15 μg/ml Aza-C
[12] = Day 7 after 48 hr 15 μg/mL Aza-C

For `Nc1ncn([C@@H]2O[C@H](CO)[C@@H](O)[C@H]2O)c(=O)n1` [Aza-C, 5-azacytidine], the “apoptotic rate of articular chondrocytes (TUNEL stained / DAPI stained cells) vs control cultures” value [1] was “significantly increased”, the “Percentage change of mRNA expression of collagen type X by quantitative real-time PCR” value (collagen type X gene [2]; [8]) was 398.0 ± 26.3 % and the “Percentage change of mRNA expression of collagen type X by quantitative real-time PCR” value (collagen type X gene [2]; [9]) was 335.0 ± 1.4 %. For the same molecule, the “mRNA expression of collagen type X gene (RT-PCR, normalized to 18S rRNA) vs control group” value (collagen type X gene [3]; Day 3 after 48 hr treatment with 15 μg/ml Aza-C) was “significantly increased”, the “mRNA expression of collagen type X gene (RT-PCR, normalized to 18S rRNA) vs control group” value (collagen type X gene [3]; [10]) was “significantly increased” and the “mRNA expression of collagen type X gene (RT-PCR, normalized to 18S rRNA) vs control group” value (collagen type X gene [3]; [11]) was “significantly increased”. The “increase of cell size as compared to the control cultures” value [4] was 26%, the “cell size of articular chondrocytes (relative intensity in forward scatter)” value ([4]; mean ± SEM, control cultures 404.41±1.45, p<0.01) was 509.20±1.93 and the “Percentage change of mRNA expression of collagen type II by quantitative real-time PCR” value (collagen type II gene [5]; [8]) was 7.3 ± 1.2 %. For the same molecule, the “Percentage change of mRNA expression of collagen type II by quantitative real-time PCR” value (collagen type II gene [5]; [12]) was 1.0 ± 0.4 %, the “Percentage change of mRNA expression of collagen type II by quantitative real-time PCR” value (collagen type II gene [5]; [9]) was 3.0 ± 0.9 % and the “mRNA expression of collagen type II gene (RT-PCR, normalized to 18S rRNA) vs control group” value (collagen type II gene [6]; [10]) was “significantly decreased”. For the same molecule, the “mRNA expression of collagen type II gene (RT-PCR, normalized to 18S rRNA) vs control group” value (collagen type II gene [6]; [11]) was “significantly decreased”, the “mRNA expression of ALP gene (RT-PCR, normalized to 18S rRNA) vs control group” value [7, 10] was “significantly increased” and the “mRNA expression of ALP gene (RT-PCR, normalized to 18S rRNA) vs control group” value [7, 11] was “significantly increased”. The “Percentage change of mRNA expression of ALP by quantitative real-time PCR” value (ALP gene; [8]) was 175.8 ± 13.5%, the “Percentage change of mRNA expression of ALP by quantitative real-time PCR” value (ALP gene; [12]) was 31,900.0 ± 4.7 % and the “Percentage change of mRNA expression of ALP by quantitative real-time PCR” value (ALP gene; [9]) was 735.6 ± 3.2 %.
